Where two headings read alike, the source gives them in different places.
Legend:
[1] = system: skin (stratum corneum stripped, hyperemia); assay: vasoconstriction test (topical ointment on stripped skin, skin color value); type: in vivo, human volunteers; settings: concentration 0.00001%, untreated skin = 100, stripped skin = 0
Protocol: The local anti-inflammatory activity of the corticoids can be determined by means of the conventional vasoconstriction test.
On the backs of persons volunteering for the experiment, the stratum corneum was split up by the application and removal of an adhesive strip having a width of 2 cm. applied twenty times at the same spot, thus producing a pronounced hyperemia. Within the stripped area, 50 mg of an ointment preparation were applied to each one of a number of marked zones of a size of 4 cm^2. The ointment base without active ingredient served as the blank value. The color value of the untreated skin was set at 100 while that of the stripped skin was set at 0. The skin color value under vasoconstriction was correspondingly evaluated between 0 and 100.

thymus = assay: thymolysis test (oral, adrenalectomized rats, thymus weight); type: in vivo, SPF rats; settings: Rattus norvegicus, 72 h, read-out: Thymolysis ED50
Protocol: The systemic activity of the compounds of this invention was determined as follows with the aid of the well-known thymolysis test:
SPF [specific-pathogen free] rats weighing 70- 110 g were adrenalectomized under ether narcosis. Six animals, respectively, formed each test group and received orally over a period of three days a defined amount of the test compound. On the fourth day, the animals were sacrificed and the weight of their thymus determined. The control animals were treated in the same way, but received a benzyl benzoate-castor -castor oil mixture without the test compound. From the thus-measured thymus weights, the amount of test compound at which a 50% thymolysis was observed was conventionally determined.

paw edema = assay: adjuvant-edema test (oral, Mycobacterium butyricum paw edema); type: in vivo, SPF rats; settings: Rattus norvegicus, read-out: Adjuvant Edema Test ED50
Protocol: Furthermore, the systemic activity was determined with the aid of the adjuvant-edema test as follows:
SPF rats weighing 130-150 g were injected in the right hind paw with 0.1 ml of a 0.5% Mycobacterium butyricum suspension (obtainable from the U.S. company, Difco), in order to induce a center of inflammation. Prior to injection, the paw volume of the rats was measured. Twenty four hours after injection, the paw volume was measured once again to determine the extent of the edema. Thereafter, varying amounts of the test compound, was administered orally to the rats. After another 24 hours, the paw volume was again determined.
The control animals were treated in the same way but without any test compound.
From the thus-obtained paw volumes, the amount of test compound which was required to achieve a 50% reduction the paw edema was conventionally determined. Difluocotolone 21-valerate was also utilized in these tests as the comparison compound.

[2] = oral, three days, 50% thymolysis, adrenalectomized rats, systemic activity
[3] = oral, 50% reduction of paw edema, systemic activity

SMILES: CCCCC(=O)OCC(=O)[C@H]1[C@H](C)C[C@H]2[C@@H]3C[C@H](F)C4=CC(=O)C=C[C@]4(C)[C@@]3(F)[C@@H](O)C[C@@]21C [I, 6α, 9α-difluoro-11β-hydroxy-16α-methyl-21-valeryloxy-1,4-pregnadiene-3,20-dione, reference compound]
- Vasoconstriction after 4 Hours [1]: 33%
- Vasoconstriction after 8 Hours [1]: 36%
- ED50 (thymus; po): 0.03 mg/kg
- ED50 (paw edema; po): 0.3 mg/kg

SMILES: CC(C)(C)C(=O)OCC(=O)[C@@]1(OC(=O)c2ccccc2)CC[C@H]2C3=C([C@@H](O)C[C@@]21C)[C@@]1(C)C=CC(=O)C=C1CC3 [II, 17α-Benzoyloxy-11β-hydroxy-21-trimethylacetoxy-1,4,8(9)-pregnatriene-3,20-dione]
- Vasoconstriction after 4 Hours [1]: 30%
- Vasoconstriction after 8 Hours [1]: 33%
- ED50 (thymus; [2]): 5.5 mg/kg
- ED50 (paw edema; [3]): 10 mg/kg

SMILES: CC(=O)O[C@]1(C(=O)CCl)CC[C@H]2C3=C([C@@H](O)C[C@@]21C)[C@@]1(C)C=CC(=O)C=C1CC3 [III, 17α-Acetoxy-21-chloro-11β-hydroxy-1,4,8(9)-pregnatriene-3,20-dione]
- Vasoconstriction after 4 Hours [1]: 42%
- Vasoconstriction after 8 Hours [1]: 42%
- ED50 (thymus; [2]): 3.6 mg/kg
- ED50 (paw edema; [3]): 3.6 mg/kg

SMILES: CCC(=O)O[C@]1(C(=O)CCl)CC[C@H]2C3=C([C@@H](O)C[C@@]21C)[C@@]1(C)C=CC(=O)C=C1CC3 [IV, 21-Chloro-11β-hydroxy-17α-propionyloxy-1,4,8(9)-pregnatriene-3,20-dione]
- Vasoconstriction after 4 Hours [1]: 47%
- Vasoconstriction after 8 Hours [1]: 45%
- ED50 (thymus; [2]): 2 mg/kg
- ED50 (paw edema; [3]): 2 mg/kg

SMILES: C[C@]12C=CC(=O)C=C1CCC1=C2[C@@H](O)C[C@@]2(C)[C@H]1CC[C@]2(OC(=O)c1ccccc1)C(=O)CCl [V, 17α-Benzoyloxy-21-chloro-11β-hydroxy-1,4,8(9)-pregnatriene-3,20-dione]
- Vasoconstriction after 4 Hours [1]: 52%
- Vasoconstriction after 8 Hours [1]: 64%
- ED50 (thymus; [2]): 1 mg/kg
- ED50 (paw edema; [3]): 1 mg/kg

From patent US4176126A, “Novel corticoids” (Schering Aktiengesellschaft, priority 1976, dated 1979)
